Several values for one entry are separate records, joined by “and”; a condition that tells them apart may be missing. Identical values can stand only once. Entries after “also recorded” stand apart in the source; their conditions may differ.
Assays:
[1] = tested on: kidney tissues of treated or untreated rats; experiment: Real-time qRT-PCR of signature amplicons, validation stage, labeled and un-labeled samples (Table 23); conditions: for H31883_DB71_seg13 normalized qRT-PCR result / MUSCYCG1R_DB81_seg19-20 normalized qRT-PCR result / W41270_DB81_seg11 normalized qRT-PCR result: labeled sample, one line per animal
Summary of the method: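 Each of four signature genes measured as wild-type and alternative-splice amplicons by qRT-PCR in treated or untreated rat kidney. Normalization was two-step: housekeeping-gene factor, then inter-plate correction from shared samples on a shuffled control plate; final values rescaled for display.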

[2] = tested on: Sprague-Dawley Crl:CD(SD) rats; conditions: rat, in vivo;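 further: control rats received saline intraperitoneally, and the organs examined were adrenals, brain, kidneys, liver, spleen and thymus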
Experimental: (§1) Control animals were treated intraperitoneal with saline.
(§2) Randomization and group allocation: prior to treatment, the animals were assigned to the experimental groups based on their body weight. Mean body weight of each group at randomization was not deviate±20% of the mean population weight. Males and females were randomized separately. For the randomization, a computer program was used.
(§3) The day before autopsy, urinalysis was performed and blood samples were taken for hematology and clinical chemistry examinations.
(§4) On the day of autopsy the animals were anaesthetized with isoflurane, blood was collected for PBMC isolation then subjected to autopsy. Tissues and organs (adrenals, brain, kidneys, liver, spleen and thymus) were weighed and subjected to gross pathological and histopathological examinations.

[3] = tested on: Sprague-Dawley Crl:CD(SD) rats; experiment: Rat toxicity study, single, 5-day and 28-day treatment (clinical observation, clinical pathology, autopsy, organ weights, histopathology);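 further: control rats received saline intraperitoneally, and the organs examined were adrenals, brain, kidneys, liver, spleen and thymus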
Experimental: as §1, §2, §3, §4

[4] = day1, female rat kidney, listed as Tob
[5] = day1, male rat kidney, listed as Tob
[6] = day28, female rat kidney, listed as Tob
[7] = day28, male rat kidney, listed as Tob
[8] = labeled samples, day1, kidney of individual male/female rats, listed as Tob
[9] = labeled samples, day5, kidney of individual male/female rats, listed as Tob
[10] = labeled samples, day28, kidney of individual male/female rats, listed as Tob

In the case of `NC[C@H]1O[C@H](O[C@H]2[C@H](O)[C@@H](O[C@H]3O[C@H](CO)[C@@H](O)[C@H](N)[C@H]3O)[C@H](N)C[C@@H]2N)[C@H](N)C[C@@H]1O` [Tobramycin], the “H31883_DB71_seg13 normalized qRT-PCR result” value [1, 4] is reported as 1.153 and 0.799 and 0.982, the “MUSCYCG1R_DB81_seg19-20 normalized qRT-PCR result” value [1, 4] is reported as 5.307 and 1.195 and 1.623 and the “W41270_DB81_seg11 normalized qRT-PCR result” value [1, 4] is reported as 1.5 and 0.73 and 1.166. For the same compound, the “H31883_DB71_seg13 normalized qRT-PCR result” value [1, 5] was 1.126 and 0.999 and 1.049, the “MUSCYCG1R_DB81_seg19-20 normalized qRT-PCR result” value [1, 5] was 2.04 and 0.825 and 1.223 and the “W41270_DB81_seg11 normalized qRT-PCR result” value [1, 5] was 1.43 and 1.083 and 1.619. The “H31883_DB71_seg13 normalized qRT-PCR result” value [1, 6] was 0.876 and 0.621 and 0.987, the “MUSCYCG1R_DB81_seg19-20 normalized qRT-PCR result” value [1, 6] was 0.959 and 1.021 and 1.478 and the “W41270_DB81_seg11 normalized qRT-PCR result” value [1, 6] was 1.073 and 1.144 and 1.118. For the same compound, the “H31883_DB71_seg13 normalized qRT-PCR result” value [1, 7] was 0.39 and 0.832 and 0.803, the “MUSCYCG1R_DB81_seg19-20 normalized qRT-PCR result” value [1, 7] was 0.679 and 1.273 and 1.397 and the “W41270_DB81_seg11 normalized qRT-PCR result” value [1, 7] was 0.61 and 1.379 and 1.281. The “H31883_DB71_seg13 normalized qRT-PCR expression (Cyclin-G1 (CCNG1) transcript)” value [1, 8] was 1.137 and 1.104 and 1.132 and 0.912 and 0.563 and 0.661, the “MUSCYCG1R_DB81_seg19-20 normalized qRT-PCR expression” value [1, 8] was 1.582 and 0.967 and 1.506 and 1.173 and 1.025 and 0.987 and the “W41270_DB81_seg11 normalized qRT-PCR expression (tumor necrosis factor receptor superfamily, member 12a transcript)” value [1, 8] was 1.601 and 1.084 and 0.577 and 0.949 and 0.809 and 0.983. The “AI045075_DB71_seg6 normalized qRT-PCR expression (Interferon stimulated exonuclease 20 (ISG20) transcript)” value [1, 9] was 1.327 and 1.644 and 1.614 and 1.367 and 2.402 and 1.224, the “H31883_DB71_seg13 normalized qRT-PCR expression (Cyclin-G1 (CCNG1) transcript)” value [1, 9] was 0.863 and 0.855 and 1.237 and 0.988 and 0.858 and 1.646 and the “MUSCYCG1R_DB81_seg19-20 normalized qRT-PCR expression” value [1, 9] was 0.99 and 1.589 and 0.968 and 1.6 and 1.424 and 2.062. For the same compound, the “W41270_DB81_seg11 normalized qRT-PCR expression (tumor necrosis factor receptor superfamily, member 12a transcript)” value [1, 9] was 0.559 and 2.483 and 0.802 and 1.529 and 2.317 and 0.946, the “W64472_DB81_seg2 normalized qRT-PCR expression (Interferon stimulated exonuclease 20 (ISG20) transcript)” value [1, 9] was 1.193 and 1.871 and 1.449 and 1.063 and 1.785 and 1.447 and the “W83813_DB81_seg27 normalized qRT-PCR expression” value [1, 9] was 0.589 and 1.262 and 0.892 and 1.058 and 0.942 and 1.117. The “H31883_DB71_seg13 normalized qRT-PCR expression (Cyclin-G1 (CCNG1) transcript)” value [1, 10] was 0.624 and 0.324 and 0.69 and 0.528 and 0.551 and 0.807, the “MUSCYCG1R_DB81_seg19-20 normalized qRT-PCR expression” value [1, 10] was 0.713 and 0.76 and 1.087 and 0.889 and 1.268 and 0.903 and the “W41270_DB81_seg11 normalized qRT-PCR expression (tumor necrosis factor receptor superfamily, member 12a transcript)” value [1, 10] was 1.189 and 1.217 and 1.099 and 1.267 and 1.373 and 1.798. For the same compound, the “Label: true label (Normal/Toxic), known renal toxic effect” value ([1]; rat, in vivo) was “Toxic”, the Water consumption [2] was “Decrease in Tobramycin and Cadmium chloride treated females” and the Autopsy findings ([3]; 5-day treatment) was “No effect”. For the same compound, the Autopsy findings ([3]; 28-day treatment, male and female rats) was “Enlarged, discolored kidneys; also recorded: Alterations were found in the kidneys; also recorded: ♂: ↑↑, pale”.
